These results are taken from PubChem BioAssay (NCI).

Test systems include A549 NSCLC; COLO 205 colon; DMS 114 small cell lung; HOP-18 NSCLC; HT29 colon; M19-MEL melanoma; NCI-H460 lung; SNB-19 CNS; SNB-78 CNS; UACC-62 melanoma; UO-31 renal; HS 578T breast.
What all share (experiment): NCI tumour cell line growth inhibition, 48 h

The structures appear in SMILES notation.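 Cultured in 96-well plates, cells were exposed to test compound for 48 hours across five concentrations. TGI denotes the concentration required for complete inhibition of growth.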

Consider `On1c(-c2ccccc2)c(-c2ccccc2N2CCCC2)c2ccccc21`, for which the TGI in the assay on A549 NSCLC, in the assay on COLO 205 colon, in the assay on DMS 114 small cell lung, in the assay with HOP-18 NSCLC, in the assay on HT29 colon and with M19-MEL melanoma was over 100 µM in each case. Besides, the TGI in the assay on NCI-H460 lung, in the assay with SNB-19 CNS, in the assay on SNB-78 CNS and in the assay on UACC-62 melanoma was over 100 µM throughout.

Consider `CCCCCCCCCCCC[S+](C)C`, for which the TGI worked out at 26.1 µM in the assay on A549 NSCLC; 5.15 µM in the assay with COLO 205 colon; 13.4 µM in the assay on DMS 114 small cell lung; 14.9 µM in the assay with HOP-18 NSCLC; 18.3 µM with HT29 colon; 6.45 µM in the assay with M19-MEL melanoma. The TGI in the assay with NCI-H460 lung is 33.2 µM; in the assay with SNB-19 CNS, 20.5 µM; in the assay with SNB-78 CNS, 26.6 µM; in the assay on UACC-62 melanoma, 21.9 µM; with UO-31 renal, 27.2 µM.

For the molecule `CCCCCCCCCCCCCCCCNc1cccc2ccccc12`, the TGI in the assay on A549 NSCLC, with COLO 205 colon, in the assay on DMS 114 small cell lung, with M19-MEL melanoma, in the assay with NCI-H460 lung and with SNB-19 CNS was over 100 µM each time. The TGI in the assay on SNB-78 CNS, in the assay on UACC-62 melanoma and in the assay on UO-31 renal was over 100 µM each time.

Turning to `CCOC(=O)C1S/C(=N\C(=N)N[N+](=O)[O-])N=C1C` (stereo not drawn), the TGI in the assay on A549 NSCLC, with COLO 205 colon, in the assay on DMS 114 small cell lung, with HOP-18 NSCLC, with HT29 colon and in the assay with M19-MEL melanoma was over 100 µM throughout. In addition, the TGI in the assay with NCI-H460 lung, in the assay with SNB-19 CNS and in the assay with UO-31 renal was over 100 µM in each case.

For the molecule `C[N+](C)([O-])CCOc1cc2c(c3ccccc13)-c1ccccc1C2=O`, the TGI in the assay with A549 NSCLC was 54.6 µM; in the assay with COLO 205 colon, 32.3 µM; in the assay with DMS 114 small cell lung, 24.7 µM; in the assay with HOP-18 NSCLC, over 100 µM; with HT29 colon, over 35.6 µM; in the assay with M19-MEL melanoma it was 36.2 µM. Further, the TGI with NCI-H460 lung was 43.2 µM; with SNB-19 CNS it was over 55.1 µM; in the assay on SNB-78 CNS, over 91.1 µM; with UACC-62 melanoma it was 30.2 µM; in the assay on UO-31 renal, 40 µM.

Take `COc1cc2c(cc1OC)C(C(c1ccccc1)c1ccccc1)N(C)CC2` (stereo not drawn): the TGI was over 100 µM in the assay with A549 NSCLC; 33.5 µM in the assay on COLO 205 colon; over 100 µM in the assay on DMS 114 small cell lung; over 100 µM with HOP-18 NSCLC; over 100 µM in the assay on HT29 colon; over 100 µM in the assay with M19-MEL melanoma. The TGI in the assay on NCI-H460 lung, in the assay on SNB-19 CNS, with SNB-78 CNS, in the assay with UACC-62 melanoma and in the assay on UO-31 renal was over 100 µM throughout.

As to `COC(=O)C(Cc1ccc2c(c1)CCC2)Cc1ccc2c(c1)CCC2`, the TGI with A549 NSCLC, in the assay on COLO 205 colon, with HS 578T breast, in the assay on HT29 colon, in the assay on NCI-H460 lung and in the assay on SNB-19 CNS was over 100 µM throughout. The TGI in the assay with UACC-62 melanoma and in the assay with UO-31 renal was over 100 µM throughout.

As to `Cn1c(SCc2ccc(F)cc2)nnc1C12CC3CC(CC(C3)C1)C2`, the TGI is over 100 µM in the assay on A549 NSCLC; 31.6 µM in the assay with COLO 205 colon; 85.1 µM in the assay on HS 578T breast; 39.2 µM in the assay on HT29 colon; over 100 µM in the assay on NCI-H460 lung; over 100 µM in the assay on SNB-19 CNS. For the same molecule, the TGI with UACC-62 melanoma and in the assay on UO-31 renal was over 100 µM in each case.

`O=C(O)COc1ccccc1C(=O)Nc1ccccc1`: the TGI in the assay on A549 NSCLC, in the assay on COLO 205 colon, in the assay on HT29 colon, in the assay with M19-MEL melanoma, in the assay with NCI-H460 lung and with SNB-19 CNS was over 100 µM each time. The TGI in the assay on SNB-78 CNS, in the assay with UACC-62 melanoma and with UO-31 renal was over 100 µM in each case.

Regarding `O=C(O)CCNc1ncnc2nc[nH]c12`, the TGI in the assay on A549 NSCLC, in the assay with COLO 205 colon, with HS 578T breast, in the assay with HT29 colon, with NCI-H460 lung and with SNB-19 CNS was over 100 µM throughout. The TGI in the assay with UACC-62 melanoma and with UO-31 renal was over 100 µM in each case.

Regarding `CCNC(=S)NNC(=O)C12CC3CC(CC(C3)C1)C2`, the TGI in the assay with A549 NSCLC, with COLO 205 colon, in the assay with HS 578T breast, in the assay with HT29 colon, in the assay with NCI-H460 lung and in the assay with SNB-19 CNS was over 100 µM in each case. The TGI in the assay on UACC-62 melanoma and with UO-31 renal was over 100 µM throughout.

For the molecule `COC(C)(C)C1(O)CC[C@@H](C)CC1=O` (stereo partly drawn), the TGI with A549 NSCLC, in the assay on COLO 205 colon, with HS 578T breast, with HT29 colon, in the assay with NCI-H460 lung and with SNB-19 CNS was over 100 µM each time. Further, the TGI in the assay with UACC-62 melanoma and in the assay on UO-31 renal was over 100 µM in each case.

As for `O=C(/C=C/c1ccccc1)Oc1ccc(C(=O)/C=C/c2ccccc2)cc1`, the TGI was over 89.1 µM with A549 NSCLC; 21 µM in the assay with COLO 205 colon; 69.4 µM with HS 578T breast; 17.7 µM in the assay on HT29 colon; 18.8 µM in the assay on NCI-H460 lung; 38.5 µM in the assay with SNB-19 CNS. In addition, the figures for the TGI with UACC-62 melanoma and in the assay with UO-31 renal were 17.7 µM and 15.3 µM, respectively.

`Cc1c2n(c(=O)[nH]c1=O)C1OC(CO)C(N=[N+]=[N-])C1O2` (stereo not drawn): the TGI with A549 NSCLC, in the assay with COLO 205 colon, in the assay on DMS 114 small cell lung, in the assay on HT29 colon, in the assay on M19-MEL melanoma and in the assay with NCI-H460 lung was over 100 µM in each case. Also, the TGI with SNB-19 CNS, with SNB-78 CNS, with UACC-62 melanoma and in the assay with UO-31 renal was over 100 µM throughout.

Take `CC(=NNC(=S)Nc1ccccc1)c1cccc(C(C)=NNC(=S)Nc2ccccc2)n1`: the TGI in the assay on A549 NSCLC is over 46.4 µM; with COLO 205 colon, over 100 µM; with HS 578T breast it was over 100 µM; in the assay on HT29 colon it was over 100 µM; in the assay on NCI-H460 lung, over 56.8 µM; with SNB-19 CNS, over 100 µM. Moreover, the TGI with UACC-62 melanoma is 26.7 µM; with UO-31 renal it was over 52.1 µM.

For the molecule `CC1=Cc2cccc(C)c2C(=O)C1=O`, the TGI turned out to be 25.1 µM in the assay on A549 NSCLC; 3.49 µM in the assay with COLO 205 colon; 2.79 µM in the assay on HOP-18 NSCLC; 32.3 µM in the assay on HT29 colon; 23.6 µM in the assay on M19-MEL melanoma; 41.9 µM in the assay with NCI-H460 lung. Also, the TGI with SNB-19 CNS is 45.3 µM; with SNB-78 CNS, over 100 µM; with UACC-62 melanoma, 10.7 µM; in the assay with UO-31 renal, 27.1 µM.

Take `CN1CCOC1c1ccccc1O` (stereo not drawn): the TGI in the assay on A549 NSCLC, in the assay with COLO 205 colon, in the assay with HS 578T breast, in the assay on HT29 colon, in the assay with NCI-H460 lung and in the assay with SNB-19 CNS was over 100 µM throughout. The TGI with UACC-62 melanoma and with UO-31 renal was over 100 µM throughout.

As to `CC1=CCC([C@@](C)(O)CCCC(C)(C)N=C=S)CC1` (stereo partly drawn), the TGI in the assay with A549 NSCLC amounted to 34.2 µM; in the assay with COLO 205 colon it was 30.2 µM; in the assay with HS 578T breast, 55.4 µM; with HT29 colon it was 32.9 µM; in the assay with NCI-H460 lung, 33 µM; in the assay with SNB-19 CNS, 31.1 µM. Further, the figures for the TGI in the assay with UACC-62 melanoma and in the assay with UO-31 renal were 34.7 µM and 26.7 µM, respectively.

For `COc1ccc(N2C(=O)CC(=O)N(NC(=O)C(C)Oc3ccccc3C)C2=S)cc1` (stereo not drawn), the TGI in the assay with A549 NSCLC, in the assay on COLO 205 colon, in the assay on HS 578T breast, with HT29 colon, with NCI-H460 lung and in the assay on SNB-19 CNS was over 100 µM throughout. Also, the TGI with UACC-62 melanoma and in the assay on UO-31 renal was over 100 µM each time.

In the case of `C=C1C(=O)CC2C1CC(=O)/C(C)=C/CCC(C)(O)C2O` (stereo not drawn), the TGI in the assay on A549 NSCLC is 46.5 µM; in the assay with COLO 205 colon it was 7.49 µM; in the assay with HS 578T breast, 26.5 µM; in the assay with HT29 colon, 26.9 µM; with NCI-H460 lung it was 45.5 µM; in the assay on SNB-19 CNS it was over 67.1 µM. The TGI with UACC-62 melanoma is 14.8 µM; with UO-31 renal, 17.3 µM.

`Cc1ccc(C2=CC(=O)OC(C[P+](c3ccccc3)(c3ccccc3)c3ccccc3)(c3ccccc3)O2)cc1` (stereo not drawn): the TGI in the assay with A549 NSCLC came out at 34.3 µM; in the assay with COLO 205 colon, 28.3 µM; with HS 578T breast, 42.6 µM; with HT29 colon, 29.1 µM; in the assay with NCI-H460 lung, 43.8 µM; in the assay on SNB-19 CNS, 30.9 µM. The TGI in the assay with UACC-62 melanoma worked out at 30.5 µM; in the assay on UO-31 renal, 30.9 µM.

For `Cc1c2cc[n+](C)c(C)c2cc2c1[nH]c1ccccc12`, the TGI with A549 NSCLC amounted to 68.7 µM; with COLO 205 colon, 5.54 µM; in the assay with DMS 114 small cell lung, 10.4 µM; in the assay with HOP-18 NSCLC, 11.8 µM; with HS 578T breast, 7.54 µM; with HT29 colon, 83.8 µM. For the same molecule, the TGI in the assay with M19-MEL melanoma was 11.9 µM; in the assay with NCI-H460 lung it was 26.5 µM; with SNB-19 CNS it was 7.22 µM; with SNB-78 CNS it was 72.2 µM; in the assay with UACC-62 melanoma it was 48.8 µM; in the assay with UO-31 renal it was over 100 µM.
